The source of these data is patent publication US20230141887A1, “CRYSTAL FORM OF DIAZASPIROPYRAN COMPOUND” (MEDSHINE DISCOVERY INC., priority 2020, published 2023).

The target in one experiment is T1, FLT3(N841I) (Homo sapiens, UniProt P36888, N841I).
T1 sequence (P36888 27-993 N841I): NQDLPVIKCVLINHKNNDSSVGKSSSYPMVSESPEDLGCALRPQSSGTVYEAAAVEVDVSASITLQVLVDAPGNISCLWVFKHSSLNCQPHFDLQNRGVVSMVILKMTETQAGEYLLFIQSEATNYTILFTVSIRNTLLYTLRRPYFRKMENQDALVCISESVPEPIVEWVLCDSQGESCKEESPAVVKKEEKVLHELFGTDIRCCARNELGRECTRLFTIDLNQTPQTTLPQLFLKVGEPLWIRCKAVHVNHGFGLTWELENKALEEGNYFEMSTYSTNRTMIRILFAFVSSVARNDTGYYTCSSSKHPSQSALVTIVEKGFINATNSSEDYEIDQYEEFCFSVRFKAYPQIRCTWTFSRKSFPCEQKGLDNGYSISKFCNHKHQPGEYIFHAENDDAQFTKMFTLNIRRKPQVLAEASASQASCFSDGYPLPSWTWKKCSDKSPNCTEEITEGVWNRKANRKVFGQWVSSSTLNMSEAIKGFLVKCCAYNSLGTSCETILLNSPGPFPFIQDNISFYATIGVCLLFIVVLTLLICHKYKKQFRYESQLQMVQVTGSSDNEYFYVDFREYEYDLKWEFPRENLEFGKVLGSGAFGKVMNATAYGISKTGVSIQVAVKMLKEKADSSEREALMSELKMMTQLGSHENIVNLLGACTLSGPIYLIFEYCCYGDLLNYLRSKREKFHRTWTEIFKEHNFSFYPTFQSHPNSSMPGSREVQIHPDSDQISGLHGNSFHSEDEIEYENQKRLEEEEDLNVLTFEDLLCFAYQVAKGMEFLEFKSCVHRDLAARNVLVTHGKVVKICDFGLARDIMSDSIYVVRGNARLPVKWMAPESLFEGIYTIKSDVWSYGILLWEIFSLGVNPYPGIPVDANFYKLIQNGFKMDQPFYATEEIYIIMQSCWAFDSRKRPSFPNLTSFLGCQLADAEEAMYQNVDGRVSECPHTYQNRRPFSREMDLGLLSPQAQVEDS
It is filed as binding.

Another experiment addresses T2, FLT3(R834Q) (Homo sapiens, UniProt P36888, R834Q).
T2 sequence (P36888 27-993 R834Q): T1 sequence (P36888 27-993 N841I) with R808Q, I815N
It is filed as binding.

Structures are written as SMILES. Changes are numbered by the printed parent chain.

Consider `CCc1nc(C(N)=O)c(Nc2ccc(N3CCC4(CCN(C)CC4)CC3)c(C)c2)nc1NC1CCOCC1.O=C(O)C(F)(F)F`, for which the Kd – broadly, a measure of binding affinity in units of concentration – on FLT3(N841I) was 0.0054 µM; at FLT3(R834Q), 0.031 µM.
